Reference: BindingDB's records for patent US8748618 (University of Virginia Patent Foundation, 2014)

target: T1, Core-binding factor subunit beta (Homo sapiens, UniProt Q13951); experiment: FRET Assay
T1 sequence (Q13951 whole entry): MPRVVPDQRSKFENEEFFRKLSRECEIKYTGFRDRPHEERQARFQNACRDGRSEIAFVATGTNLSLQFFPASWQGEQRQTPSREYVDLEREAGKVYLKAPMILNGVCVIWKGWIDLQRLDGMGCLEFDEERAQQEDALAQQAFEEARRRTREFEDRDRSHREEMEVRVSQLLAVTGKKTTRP
From the text: We have developed effective assays to monitor the inhibition of CBFβ-SMMHC binding to the Runt domain (as well as for CBFβ binding to the Runt domain). […] The ratio of the emission intensities at 525 nm and 474 nm, measured after excitation at 433 nm, was used as the readout in this assay.

Structure (SMILES)	IC50 [µM]
CCOc1cccc2[nH]c(-c3ccccn3)nc12 [US8748618, AI-4-42]	4.2
Fc1cc2[nH]c(-c3ccccn3)nc2c(F)c1F [US8748618, AI-4-43]	1.4
Cc1cccc2[nH]c(-c3ccccn3)nc12 [US8748618, AI-4-46]	5.3
FC(F)(F)c1cc(Cl)c2[nH]c(-c3ccccn3)nc2c1 [US8748618, AI-4-48]	0.76
Clc1cc(Cl)c2nc(-c3ccccn3)[nH]c2c1 [US8748618, AI-4-49]	0.7
COc1cccc2[nH]c(-c3ccccn3)nc12 [US8748618, AI-4-52]	5.5
CC(C)Oc1ccc2[nH]c(-c3ccccn3)nc2c1 [US8748618, AI-4-70 (or) LD-2-21]	1.4
c1ccc(-c2nc3ccc(N4CCOCC4)cc3[nH]2)nc1 [US8748618, AI-10-3]	1
CS(=O)(=O)c1ccc2nc(-c3ccccn3)[nH]c2c1 [US8748618, AI-10-37]	3.3
FC(F)(F)Oc1ccc2[nH]c(-c3ccccn3)nc2c1 [US8748618, AI-10-47]	1
Oc1ccc2nc(-c3ccccn3)[nH]c2c1 [US8748618, AI-10-61]	2.5
Fc1cccnc1-c1nc2ccc(OC(F)(F)F)cc2[nH]1 [US8748618, AI-10-65]	22
COCCOc1ccc(-c2nc3ccc(OC(F)(F)F)cc3[nH]2)nc1 [US8748618, AI-10-87]	2.3
c1ccc(-c2nc3cc(-n4ccnc4)ccc3[nH]2)nc1 [US8748618, AI-10-88]	3.4
Cc1ccc2[nH]c(-c3ccccn3)nc2c1C [US8748618, LD-1-23]	4.3
CCOc1ccc2[nH]c(-c3ccccn3)nc2c1 [US8748618, LD-1-29 (or) AI-10-54]	1.5
Fc1ccc2[nH]c(-c3ccccn3)nc2c1 [US8748618, LD-1-31]	2.5
Fc1cc2nc(-c3ccccn3)[nH]c2cc1F [US8748618, LD-1-33]	2.5
Cc1cc2nc(-c3ccccn3)[nH]c2cc1C [US8748618, LD-1-37]	2
Cc1ccc2[nH]c(-c3ccccn3)nc2c1 [US8748618, LD-2-11]	2.9
FC(F)(F)c1ccc2[nH]c(-c3ccccn3)nc2c1 [US8748618, LD-2-23]	1.1
Clc1ccc2nc(-c3ccccn3)[nH]c2c1 [US8748618, LD-2-79]	2.3
